According to PubChem BioAssay AID2060340 (Molecular Pharmacology Branch, DTP, NCI, 2025):

Test system: 349418-098-R-PDC spheroids, viability, % test/control
Test: Anticancer human tumor 349418-098-R-PDC patient-derived lung adenocarcinoma cell line growth inhibition [IpAb]
Conditions: spheroids with HUVEC and MSC; for IC50: curve of first compound; for viability, T/C: stronger effect = lower value
In short: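 Combinations with ipatasertib or abemaciclib were tested on tumour spheroids holding HUVEC (25%) and MSC (15%) alongside 60% malignant cells. Top concentration was at or near clinical Cmax (10 microM if undefined), descending in half-log steps.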

[1] = second compound 0.01 µM, first compound 0.0316 µM
[2] = second compound 0.01 µM, first compound 0.1 µM
[3] = second compound 0.0316 µM, first compound 0.0316 µM
[4] = second compound 0.0316 µM, first compound 0.1 µM
[5] = second compound 0.1 µM, first compound 0.0316 µM
[6] = second compound 0.1 µM, first compound 0.1 µM
[7] = second compound 0.316 µM, first compound 0.0316 µM
[8] = second compound 0.316 µM, first compound 0.1 µM
[9] = second compound 1 µM, first compound 0.0316 µM
[10] = second compound 1 µM, first compound 0.1 µM
[11] = second compound 0.01 µM, first compound 0.316 µM
[12] = second compound 0.01 µM, first compound 1 µM
[13] = second compound 0.01 µM, first compound 3.16 µM
[14] = second compound 0.01 µM, first compound 10 µM
[15] = second compound 0.0316 µM, first compound 0.316 µM
[16] = second compound 0.0316 µM, first compound 1 µM
[17] = second compound 0.0316 µM, first compound 3.16 µM
[18] = second compound 0.0316 µM, first compound 10 µM
[19] = second compound 0.1 µM, first compound 0.316 µM
[20] = second compound 0.1 µM, first compound 1 µM
[21] = second compound 0.1 µM, first compound 3.16 µM
[22] = second compound 0.1 µM, first compound 10 µM
[23] = second compound 0.316 µM, first compound 0.316 µM
[24] = second compound 0.316 µM, first compound 1 µM
[25] = second compound 0.316 µM, first compound 3.16 µM
[26] = second compound 0.316 µM, first compound 10 µM
[27] = second compound 1 µM, first compound 0.316 µM
[28] = second compound 1 µM, first compound 1 µM
[29] = second compound 1 µM, first compound 3.16 µM
[30] = second compound 1 µM, first compound 10 µM
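Further: spheroids exposed to compounds for 7 days.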

Row | SMILES | IC50 (second compound 0.01 µM) | IC50 (second compound 0.0316 µM) | IC50 (second compound 0.1 µM) | IC50 (second compound 0.316 µM) | IC50 (second compound 1 µM) | viability, T/C [1] | viability, T/C [2] | viability, T/C [3] | viability, T/C [4] | viability, T/C [5] | viability, T/C [6] | viability, T/C [7] | viability, T/C [8] | viability, T/C [9] | viability, T/C [10] | viability, T/C [11] | viability, T/C [12] | viability, T/C [13] | viability, T/C [14] | viability, T/C [15] | other results
1 | CC(C)n1nc(-c2ccc3oc(N)nc3c2)c2c(N)ncnc21 + CCN1CCN(Cc2ccc(Nc3ncc(F)c(-c4cc(F)c5nc(C)n(C(C)C)c5c4)n3)nc2)CC1 | 0.659 nM | < 0.316 nM | < 0.316 nM | < 0.316 nM | < 0.316 nM | 7.29% | 6.79% | 6.75% | 6.38% | 6.9% | 6.67% | 7.46% | 6.4% | 7.88% | 6.96% |  |  |  |  |  | viability, T/C (second compound 0.01 µM, first compound 0.000316 µM): 78.5%; viability, T/C (second compound 0.01 µM, first compound 0.001 µM): 33.8%; viability, T/C (second compound 0.01 µM, first compound 0.00316 µM): 13.3%; viability, T/C (second compound 0.01 µM, first compound 0.01 µM): 8.46%; viability, T/C (second compound 0.0316 µM, first compound 0.000316 µM): 38.4%; viability, T/C (second compound 0.0316 µM, first compound 0.001 µM): 22.3%; viability, T/C (second compound 0.0316 µM, first compound 0.00316 µM): 10.4%; viability, T/C (second compound 0.0316 µM, first compound 0.01 µM): 6.7%; viability, T/C (second compound 0.1 µM, first compound 0.000316 µM): 26.9%; viability, T/C (second compound 0.1 µM, first compound 0.001 µM): 14.9%; viability, T/C (second compound 0.1 µM, first compound 0.00316 µM): 10.1%; viability, T/C (second compound 0.1 µM, first compound 0.01 µM): 7.85%; viability, T/C (second compound 0.316 µM, first compound 0.000316 µM): 20.2%; viability, T/C (second compound 0.316 µM, first compound 0.001 µM): 13.6%; viability, T/C (second compound 0.316 µM, first compound 0.00316 µM): 9.36%; viability, T/C (second compound 0.316 µM, first compound 0.01 µM): 7.22%; viability, T/C (second compound 1 µM, first compound 0.000316 µM): 14.4%; viability, T/C (second compound 1 µM, first compound 0.001 µM): 12.4%; viability, T/C (second compound 1 µM, first compound 0.00316 µM): 8.8%; viability, T/C (second compound 1 µM, first compound 0.01 µM): 7.28%
2 | CC1(C)CCC(CN2CCN(c3ccc(C(=O)NS(=O)(=O)c4ccc(NCC5CCOCC5)c([N+](=O)[O-])c4)c(Oc4cnc5[nH]ccc5c4)c3)CC2)=C(c2ccc(Cl)cc2)C1 + CCN1CCN(Cc2ccc(Nc3ncc(F)c(-c4cc(F)c5nc(C)n(C(C)C)c5c4)n3)nc2)CC1 | 1810 nM | 1640 nM | < 31.6 nM | < 31.6 nM | < 31.6 nM | 102% | 75% | 60.8% | 56.1% | 29.8% | 32.8% | 20.6% | 19.6% | 16.7% | 18.6% | 68.5% | 67.8% | 42.9% | 6.47% | 52.5% | viability, T/C [16]: 55.4%; viability, T/C [17]: 44.1%; viability, T/C [18]: 6.96%; viability, T/C [19]: 29%; viability, T/C [20]: 26.3%; viability, T/C [21]: 24.2%; viability, T/C [22]: 6.59%; viability, T/C [23]: 21.5%; viability, T/C [24]: 18.6%; viability, T/C [25]: 20.6%; viability, T/C [26]: 4.86%; viability, T/C [27]: 16%; viability, T/C [28]: 17.9%; viability, T/C [29]: 17%; viability, T/C [30]: 4.09%
3 | CCCS(=O)(=O)Nc1ccc(F)c(C(=O)c2c[nH]c3ncc(-c4ccc(Cl)cc4)cc23)c1F + CCN1CCN(Cc2ccc(Nc3ncc(F)c(-c4cc(F)c5nc(C)n(C(C)C)c5c4)n3)nc2)CC1 | 91.3 nM | < 31.6 nM | < 31.6 nM | < 31.6 nM | < 31.6 nM | 59.7% | 50.3% | 34.7% | 23.7% | 18.8% | 17.6% | 14.3% | 13.6% | 14.1% | 11.8% | 32.9% | 37.3% | 27.6% | 16.7% | 27.6% | viability, T/C [16]: 28.3%; viability, T/C [17]: 20.8%; viability, T/C [18]: 11.4%; viability, T/C [19]: 17.3%; viability, T/C [20]: 17.2%; viability, T/C [21]: 14.2%; viability, T/C [22]: 8.97%; viability, T/C [23]: 12.5%; viability, T/C [24]: 10.8%; viability, T/C [25]: 10.5%; viability, T/C [26]: 9.39%; viability, T/C [27]: 11.1%; viability, T/C [28]: 9.39%; viability, T/C [29]: 9.24%; viability, T/C [30]: 7.05%
